Holding throughout (experiment): inhibition of tumour cell growth, NCI panel, 48 h
The test system of test [1] is 786-0 renal.
Test [2] has as its system MDA-MB-231 breast.
Test [3] deals with SK-MEL-2 melanoma.
For test [4], the system named is MCF7 breast.
The test system of test [5] is MALME-3M melanoma.
For test [6], the system named is SNB-19 CNS.
Test [7] has as its system T-47D breast.
The test system of test [8] is TK-10 renal.
The subject of test [9] is KM12 colon.
For test [10], the system named is EKVX NSCLC.

SMILES strings stand for the structures.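 Test compounds were applied to cells in 96-well plates for 48 hours at 5 doses. Here, GI50 denotes the concentration required for 50% inhibition of growth. TGI: concentration producing complete growth inhibition.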

From PubChem BioAssay (NCI) come the findings set out here.

With `C=C1C(=O)O[C@H]2[C@H]1CC/C(COC(=O)NCc1c[nH]c3ccccc13)=C\CC[C@@]1(C)O[C@@H]21`, the GI50 in test [1] was 1.78 µM; in test [2] it was 1.91 µM; in test [3], 11.1 µM; in [4], 1.5 µM; in test [5], 2.02 µM; in test [6], 10.6 µM. For the same molecule, the GI50 in test [7] is 1.57 µM; in test [8] it was 2.55 µM; in [9], 13.8 µM; in [10], 2.23 µM. Further, the TGI in test [1] was 3.93 µM; in [2] it was 4.98 µM; in [3], 24.5 µM; in test [4], 4.39 µM; in test [5] it was 5.21 µM; in test [6], 22.8 µM. Moreover, the TGI in test [7] is 4.11 µM; in test [8], 5.65 µM; in test [9] it was 30.7 µM; in test [10] it was 8.84 µM.

`O=C(/C=C/c1ccc(Cl)cc1)c1ccccc(=O)c1O`: the TGI in test [1] was 32.1 µM; in test [2], 23.6 µM; in test [3], 11.8 µM; in test [4], 19.8 µM; in [5], 5.22 µM; in test [6], 11.8 µM. Also, the TGI in [7] was determined as 19.8 µM; in test [8], 19.1 µM; in test [9] it was 6.45 µM; in test [10] it was 18.3 µM.

Take `COC(=O)c1ccc2c(c1)C(=O)c1c-2n(CCCCl)c(=O)c2cc([N+](=O)[O-])ccc12`: the GI50 was 63.5 µM in test [1]; more than 100 µM in [2]; more than 100 µM in test [3]; 52 µM in [4]; more than 100 µM in test [5]; 56.6 µM in test [6]. Besides, the GI50 in test [7] was 92 µM; in [8], more than 100 µM; in test [9] it was more than 100 µM; in test [10], more than 100 µM. Also, the TGI in test [1], in [2], in test [3], in [4], in [5] and in test [6] was more than 100 µM each time. The TGI in [7], in [8], in [9] and in [10] was more than 100 µM each time.

With `COc1cccc(/C=C/C(=O)c2ccc(SC)cc2)c1OC`, the GI50 was 14.2 µM in [1]; 17.3 µM in test [2]; 23.3 µM in test [3]; 11 µM in test [4]; 16.7 µM in [5]; 16.2 µM in [6]. Further, the GI50 is 11.6 µM in test [7], 22.5 µM in test [8], 16.6 µM in test [9] and 18.8 µM in test [10]. The TGI in test [1] stood at 28.2 µM; in test [2], 36.4 µM; in test [3], 40.7 µM; in [4], 35.8 µM; in test [5], 34.7 µM; in test [6], 32 µM. Moreover, the TGI was found to be 35.2 µM in test [7], 49.5 µM in [8], 33.4 µM in test [9] and 35.6 µM in test [10].

As for `Nc1c(C(=O)Nc2ccccc2)sc2nc3c(cc12)CCCCC3`, the GI50 in test [1] was 0.465 µM; in [2], 1.62 µM; in test [3] it was 1.72 µM; in test [4], 0.332 µM; in test [6] it was 0.643 µM; in [7], 0.834 µM. The GI50 in test [8] is 2.39 µM; in [9], 0.52 µM. Further, the TGI in [1] was 11.8 µM; in test [2], 42 µM; in [3], 20.4 µM; in test [4], more than 100 µM; in test [6], more than 100 µM; in [7], 80.6 µM. The TGI in [8] is 30.3 µM; in test [9] it was more than 100 µM.

Turning to `Cn1c(=O)c(Oc2ccc(F)cc2F)cc2cnc(NC(C)(C)CO)nc21`, the GI50 in test [1], in test [2], in test [3], in test [4], in test [5] and in test [6] was more than 25 µM in each case. Also, the GI50 in [7] was 13.7 µM; in test [8] it was more than 25 µM; in [9] it was more than 25 µM. For the same molecule, the TGI in test [1], in test [2], in [3], in test [4], in [5] and in test [6] was more than 25 µM each time. Moreover, the TGI in [7], in test [8] and in [9] was more than 25 µM in each case.

For the molecule `Cc1nc2c(c(N3CCCc4ccccc43)n1)CCC2`, the GI50 in test [1] was less than 0.01 µM; in [2], 0.0137 µM; in test [3] it was 0.016 µM; in test [4], 0.0228 µM; in test [6], less than 0.01 µM; in test [7], 30.7 µM. The results for the GI50 in [8], in test [9] and in test [10] were 1.62 µM, less than 0.01 µM and less than 0.01 µM, respectively. Further, the TGI in test [1], in test [2], in test [3], in [4], in test [6] and in test [7] was more than 100 µM in each case. The TGI in [8], in test [9] and in test [10] was more than 100 µM each time.

With `O=C1C(Cl)=C(Nc2ccc(Nc3ccccc3)c(NC3=C(Cl)C(=O)c4ccccc4C3=O)c2)C(=O)c2ccccc21`, the GI50 in [1] is 15.2 µM; in test [2] it was 1.27 µM; in test [4], 5.31 µM; in test [5], 2.5 µM; in [6], 4.34 µM; in test [7], 1.95 µM. For the same molecule, the figures for the GI50 in test [8] and in test [10] were 2.62 µM and 11.4 µM, respectively. In addition, the TGI was 46.5 µM in test [1]; 6.02 µM in test [2]; 44 µM in [4]; 5.71 µM in test [5]; 59.4 µM in test [6]; 4.75 µM in test [7]. The results for the TGI in test [8] and in test [10] were 4.5 µM and 96.4 µM, respectively.
